{
  "source": "patent US20150133456A1",
  "about": "“FLUOROERGOLINE DERIVATIVES AND USES THEREOF” (MAP PHARMACEUTICALS, INC., priority 2012, published 2015)",
  "key": {"human α2C receptor": {"target": "human α2C receptor (Homo sapiens, UniProt P18825)", "sequence (P18825 whole entry)": "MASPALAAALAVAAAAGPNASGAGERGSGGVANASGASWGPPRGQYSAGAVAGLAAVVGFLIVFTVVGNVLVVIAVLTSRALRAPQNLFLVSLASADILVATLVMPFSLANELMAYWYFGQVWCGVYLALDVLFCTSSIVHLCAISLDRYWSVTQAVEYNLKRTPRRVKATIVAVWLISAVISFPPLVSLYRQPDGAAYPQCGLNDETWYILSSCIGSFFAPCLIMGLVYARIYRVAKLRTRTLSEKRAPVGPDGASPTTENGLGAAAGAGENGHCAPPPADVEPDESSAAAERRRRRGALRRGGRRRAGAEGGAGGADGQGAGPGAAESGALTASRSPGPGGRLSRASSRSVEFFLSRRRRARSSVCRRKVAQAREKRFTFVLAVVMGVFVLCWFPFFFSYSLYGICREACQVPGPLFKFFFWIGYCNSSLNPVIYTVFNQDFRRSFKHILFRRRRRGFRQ", "assay": "GTPγS antagonist assay, α2C", "format": "biochemical", "conditions": "read-out: IC50, α2C antagonism"}, "human 5-HT2B receptor [1]": {"target": "T1, human 5-HT2B receptor (Homo sapiens, UniProt P41595)", "T1 construct": "host or cells: CHO-K1 coexpressing mitochondrial apoaequorin", "T1 sequence (P41595 whole entry)": "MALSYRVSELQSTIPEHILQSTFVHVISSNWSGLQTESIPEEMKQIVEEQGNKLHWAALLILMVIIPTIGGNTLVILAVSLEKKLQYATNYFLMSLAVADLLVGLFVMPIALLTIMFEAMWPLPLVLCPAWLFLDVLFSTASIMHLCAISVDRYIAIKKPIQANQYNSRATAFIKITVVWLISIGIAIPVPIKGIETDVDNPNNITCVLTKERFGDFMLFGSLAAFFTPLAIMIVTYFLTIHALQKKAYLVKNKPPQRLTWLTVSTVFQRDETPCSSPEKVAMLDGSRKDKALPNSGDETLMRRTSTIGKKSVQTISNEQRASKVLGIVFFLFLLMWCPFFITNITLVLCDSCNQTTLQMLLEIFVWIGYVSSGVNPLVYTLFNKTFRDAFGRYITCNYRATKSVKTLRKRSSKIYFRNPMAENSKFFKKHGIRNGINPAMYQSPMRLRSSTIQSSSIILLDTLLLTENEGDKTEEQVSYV", "assay": "Aequorin assay, agonist activity at 5-HT2B", "format": "cell-based", "conditions": "0.01 nM to 20,000 nM; versus Emax of α-methyl-5-HT", "protocol": "Percentage activation values were determined for 2-CF3 dihydroergotamine at the 5-HT2B receptor."}, "OX1": {"target": "T2, OX1 (Homo sapiens, UniProt O43613)", "T2 construct": "expressed in transfected cells; host or cells: CHO-AEQ (CHO-K1 with mitochondrial apoaequorin)", "T2 sequence (O43613 whole entry)": "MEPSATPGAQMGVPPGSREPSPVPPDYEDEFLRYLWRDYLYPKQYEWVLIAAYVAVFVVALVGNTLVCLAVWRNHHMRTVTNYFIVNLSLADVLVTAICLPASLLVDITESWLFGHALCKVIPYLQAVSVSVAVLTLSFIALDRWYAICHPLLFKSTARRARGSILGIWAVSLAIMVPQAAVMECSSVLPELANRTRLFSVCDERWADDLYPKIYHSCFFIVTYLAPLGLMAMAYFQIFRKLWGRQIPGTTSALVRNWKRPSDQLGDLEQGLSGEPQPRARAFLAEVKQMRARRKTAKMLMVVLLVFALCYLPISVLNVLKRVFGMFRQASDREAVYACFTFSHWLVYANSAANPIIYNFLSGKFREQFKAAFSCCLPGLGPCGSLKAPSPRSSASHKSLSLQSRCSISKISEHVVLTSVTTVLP", "assay": "Orexin receptor Aequorin assay", "format": "cell-based", "conditions": "antagonism", "protocol": "(§1) CHO-K1 cells coexpressing mitochondrial apoaequorin and the recombinant human receptor of interest were grown to mid-log phase in culture media without antibiotics and then detached with PBS-EDTA, centrifuged and resuspended in assay buffer (DMEM/HAM's F12 with HEPES, without phenol red+0.1% BSA, protease free) at a concentration of 1×10^6 cell/mL. Cells were incubated at room temperature for at least 4 hours with coelenterazine h. Reference agonist/antagonist was tested to evaluate the performance of the assay and to determine EC50/IC50.\n(§2) 50 μL of the cell suspension was mixed with 50 μL of test or reference agonist in a 96-well plate. […] For antagonist testing, 100 μL of the reference agonist at its EC80 was injected on the mix of cells and test compound, following an incubation of 15 minutes after the first injection. The resulting emission of light was r recorded using Hamamatsu Functional Drug Screening System 6000 (FDSS 6000) luminometer. To standardize the emission of recorded light (and determine of the “100% signal”) across plates and across different experiments, some wells contained 100 μM digitonin or a saturating concentration of ATP (20 μM)."}, "[2]": {"tested_on": "Purinergic (P2X1/P2X2/P2X3/P2X4/P2X7)", "assay": "Purinergic receptor QPatch patch clamp, agonist and antagonist modes", "format": "cell-based, human", "conditions": "agonist and antagonist modes at 3 and 10 μM", "protocol": "Human recombinant purinergic receptor expressing HEK293 cells were used and receptor activity was evaluated at room temperature using QPatch HT® (Sophion Bioscience A/S, Denmark) automatic parallel patch clamp system. 2CF3-DHE was evaluated in both agonist and antagonist modes at 3 and 10 μM. Each concentration was tested in triplicates."}, "NK1": {"target": "T3, NK1 (Homo sapiens, UniProt P25103)", "T3 construct": "expressed in transfected cells; host or cells: CHO-AEQ (CHO-K1 with mitochondrial apoaequorin)", "T3 sequence (P25103 whole entry)": "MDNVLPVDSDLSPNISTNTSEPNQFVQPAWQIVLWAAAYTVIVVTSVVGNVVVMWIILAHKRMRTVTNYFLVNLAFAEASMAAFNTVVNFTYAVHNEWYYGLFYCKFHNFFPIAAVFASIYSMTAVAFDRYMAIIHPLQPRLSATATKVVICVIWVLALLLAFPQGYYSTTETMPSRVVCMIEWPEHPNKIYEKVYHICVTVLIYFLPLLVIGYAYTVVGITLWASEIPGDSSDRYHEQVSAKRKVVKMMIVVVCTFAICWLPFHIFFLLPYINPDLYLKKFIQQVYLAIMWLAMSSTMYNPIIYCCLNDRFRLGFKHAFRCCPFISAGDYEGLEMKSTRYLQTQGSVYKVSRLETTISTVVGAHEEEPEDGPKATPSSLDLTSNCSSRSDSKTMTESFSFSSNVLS", "assay": "Neurokinin receptor Aequorin assay", "format": "cell-based", "conditions": "antagonism", "protocol": "as §1, §2"}, "Calcitonin (CGRP)": {"target": "T4, Calcitonin (CGRP) (Homo sapiens, UniProt O60894+Q16602)", "T4 construct": "expressed in transfected cells; host or cells: CHO-AEQ (CHO-K1 with mitochondrial apoaequorin)", "T4 sequence (Q16602 23-461)": "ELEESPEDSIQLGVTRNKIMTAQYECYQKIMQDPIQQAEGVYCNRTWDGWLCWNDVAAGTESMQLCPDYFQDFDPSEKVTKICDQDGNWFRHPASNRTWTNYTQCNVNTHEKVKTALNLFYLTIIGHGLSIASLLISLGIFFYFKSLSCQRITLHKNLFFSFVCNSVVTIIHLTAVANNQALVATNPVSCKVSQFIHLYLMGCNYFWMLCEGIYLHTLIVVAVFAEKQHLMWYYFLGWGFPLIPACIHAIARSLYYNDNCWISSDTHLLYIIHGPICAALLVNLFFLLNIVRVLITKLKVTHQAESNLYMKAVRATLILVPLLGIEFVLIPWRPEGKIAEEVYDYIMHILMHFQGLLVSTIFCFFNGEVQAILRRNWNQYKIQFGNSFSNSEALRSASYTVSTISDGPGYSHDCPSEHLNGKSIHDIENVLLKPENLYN", "T4 sequence (O60894 27-148 partner)": "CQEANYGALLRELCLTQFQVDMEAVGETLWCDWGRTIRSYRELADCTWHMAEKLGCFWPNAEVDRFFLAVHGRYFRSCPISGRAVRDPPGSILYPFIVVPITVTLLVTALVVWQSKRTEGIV", "assay": "CGRP receptor Aequorin assay", "format": "cell-based", "protocol": "as §1, §2"}, "[3]": {"assay": "Metabolism in human liver microsomes", "conditions": "1 μM, 0.2 mg protein/mL", "protocol": "Metabolism of dihydroergotamine (DHE) and 2-CF3 DHE was evaluated in human liver microsomes. DHE mesylate and 2-CF3 DHE mesylate (1 μM each) were incubated separately with human liver microsomes (0.2 mg protein/mL) in triplicate at 37° C. in 0.2 mL (final volume) incubation buffer (50 mM potassium phosphate buffer, pH 7.4, 3 mM MgCl2 and 1 mM EDTA, pH7.4) with or without cofactor, NADPH-generating system. The NADPH-generating system consisted of 1 mM NADP, pH 7.4, 5 mM glucose-6-phosphate, pH 7.4 and 1 unit/mL glucose-6-phosphate dehydrogenase. DHE was added to the incubation mixtures in water. 2-CF3-DHE was added to incubation mixtures in 50:50 (v:v) acetonitrile:water. A low level of acetonitrile in the incubation was maintained to avoid any solvent effects on enzyme activity (typically at 0.5% or lower). Reactions were initiated by the addition of the NADPH-generating system and were terminated at 0, 15, 30 and 60 minutes after initiation by the addition of […], of stop reagent (acetonitrile) containing two internal standards (4′-hydroxydiclofenac-d4 and 1′-hydroxymidazolam-d4, 200 and 50 ng/mL in the final stopped incubation, respectively). The samples were then centrifuged and the supernatant fractions were analyzed by LC/MS/MS to quantify the formation of 8′-OH-DHE (metabolite) in the DHE samples and DHE and 8′-OH-DHE in the 2-CF3-DHE samples."}, "human 5-HT2B receptor [4]": {"target": "T1, human 5-HT2B receptor", "assay": "Aequorin assay, antagonist activity at 5-HT2B", "format": "cell-based", "protocol": "Percentage inhibition values were determined for 2-CF3 dihydroergotamine on the 5-HT2B receptor."}, "Opioid (OP1/OP2/OP3)": {"tested_on": "Opioid (OP1/OP2/OP3)", "assay": "Opioid receptor GTPγS assays", "format": "biochemical, human", "protocol": "(§3) Reagents used were the following: Assay buffer (20 mM HEPES, pH 7.4; 100 mM NaCl; 10 μg/mL saponin; 30 mM MgCl2); Membranes (recombinant human receptor membrane extracts were thawed on ice and diluted in assay buffer to give 1000 μg/mL ([…]) and kept on ice); GDP (diluted in assay buffer to give 30 μM solution (3 μM final concentration); beads (PVT-WGA (Amersham, RPNQ001), diluted in assay buffer at 25 mg/mL (0.25 mg/10 μL)); GTPγ^35S (Perkin Elmer, NEG030X), diluted in assay buffer to give 0.1 nM (final concentration); and ligand (agonist/antagonist diluted in assay buffer).\n(§4) Membranes were mixed with GDP (1:1) and incubated for at least 15 minutes on ice. In parallel GTPγ^35S was mixed with the beads (1:1) just before starting the reaction. The following reagents were successively added in the wells of an Optiplate (Perkin Elmer): 50 μL test compound or reference ligand, 20 μL of the membranes:GDP mix (then 15 minute incubation for antagonist test), 10 μL of reference agonist at historical EC80 (for antagonist test) or 10 μL of assay buffer (for agonist test) and 20 μL of the GTPγ^35S:beads mix. […] The plates were then centrifuged for 10 minutes at 2000 rpm and incubated at room temperature for 1 hour and counted for 1 min/well with a Perkin Elmer TopCount reader."}, "α1A receptor": {"target": "T5, α1A receptor (Homo sapiens, UniProt P35348)", "T5 construct": "expressed in transfected cells", "T5 sequence (P35348 whole entry)": "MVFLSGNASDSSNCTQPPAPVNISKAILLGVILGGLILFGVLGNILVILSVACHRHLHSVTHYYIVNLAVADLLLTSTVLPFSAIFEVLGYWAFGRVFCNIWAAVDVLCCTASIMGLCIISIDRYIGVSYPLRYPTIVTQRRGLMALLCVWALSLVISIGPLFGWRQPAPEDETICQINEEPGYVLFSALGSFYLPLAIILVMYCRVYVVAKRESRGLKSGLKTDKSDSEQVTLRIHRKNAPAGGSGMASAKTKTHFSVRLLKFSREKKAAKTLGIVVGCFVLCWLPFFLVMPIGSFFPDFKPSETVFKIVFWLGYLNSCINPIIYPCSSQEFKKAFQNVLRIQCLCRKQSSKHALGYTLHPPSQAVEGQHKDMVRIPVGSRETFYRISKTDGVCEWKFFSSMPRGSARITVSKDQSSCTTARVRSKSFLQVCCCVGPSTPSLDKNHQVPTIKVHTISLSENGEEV", "assay": "Competitive antagonist activity, adrenergic α1A", "format": "cell-based", "conditions": "read-out: IC50, α1A antagonism"}, "Somatostatin (SST1~SST5)": {"tested_on": "Somatostatin (SST1~SST5)", "assay": "Somatostatin receptor GTPγS assays", "format": "biochemical, human", "protocol": "as §3, §4"}, "human α2A receptor": {"target": "human α2A receptor (Homo sapiens, UniProt P08913)", "sequence (P08913 whole entry)": "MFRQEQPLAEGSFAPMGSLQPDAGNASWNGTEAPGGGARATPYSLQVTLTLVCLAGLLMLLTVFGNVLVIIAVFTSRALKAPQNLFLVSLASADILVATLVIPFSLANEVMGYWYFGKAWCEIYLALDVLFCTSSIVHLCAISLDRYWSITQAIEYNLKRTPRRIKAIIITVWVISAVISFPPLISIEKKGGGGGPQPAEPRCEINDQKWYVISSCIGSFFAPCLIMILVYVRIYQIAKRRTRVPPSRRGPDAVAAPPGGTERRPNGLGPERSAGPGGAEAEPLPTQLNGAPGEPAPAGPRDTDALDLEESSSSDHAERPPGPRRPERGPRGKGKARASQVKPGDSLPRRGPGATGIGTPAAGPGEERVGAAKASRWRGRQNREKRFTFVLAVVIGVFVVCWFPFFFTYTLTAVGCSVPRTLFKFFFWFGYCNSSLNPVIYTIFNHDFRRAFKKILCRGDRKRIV", "assay": "GTPγS antagonist assay, α2A", "format": "biochemical", "conditions": "read-out: IC50, α2A antagonism"}, "D2 receptor": {"target": "T6, D2 receptor (Homo sapiens, UniProt P14416)", "T6 construct": "expressed in transfected cells", "T6 sequence (P14416 whole entry)": "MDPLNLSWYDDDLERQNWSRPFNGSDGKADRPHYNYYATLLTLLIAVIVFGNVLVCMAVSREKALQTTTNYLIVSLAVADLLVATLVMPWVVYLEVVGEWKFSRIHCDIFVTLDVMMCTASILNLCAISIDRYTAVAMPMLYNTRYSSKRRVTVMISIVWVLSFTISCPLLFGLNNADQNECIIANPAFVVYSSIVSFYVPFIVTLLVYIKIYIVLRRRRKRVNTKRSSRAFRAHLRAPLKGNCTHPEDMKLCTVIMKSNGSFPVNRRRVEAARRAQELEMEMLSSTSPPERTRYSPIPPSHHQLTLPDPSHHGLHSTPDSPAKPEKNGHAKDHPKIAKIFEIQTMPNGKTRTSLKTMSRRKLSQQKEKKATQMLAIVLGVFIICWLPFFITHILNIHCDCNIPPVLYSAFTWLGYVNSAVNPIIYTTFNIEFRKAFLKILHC", "assay": "Agonist activity at the D2 receptor", "format": "cell-based", "conditions": "read-out: EC50, D2 receptor agonism", "protocol": "The assay was performed analogously to the assay described in Example 4."}},
  "note": "“Also recorded” adds a separate entry of the source.",
  "data": [
    {"smiles": "CN1C[C@H](C(=O)N[C@]2(C)O[C@@]3(O)[C@@H]4CCCN4C(=O)[C@H](Cc4ccccc4)N3C2=O)CC2c3cccc4[nH]c(C(F)(F)F)c(c34)CC21", "note": "(stereo partly drawn) [2-CF3-dihydroergotamine]", "values": [
      {"measurement": "IC50", "setting": "human α2C receptor", "value": 2.78, "unit": "µM"},
      {"measurement": "agonist activity at the 5-HT2B receptor", "setting": "human 5-HT2B receptor [1]", "value": "no agonist activity; also recorded: little agonist activity"},
      {"measurement": "IC50", "setting": "OX1", "value": "> 10", "unit": "µM"},
      {"measurement": "Activity (Agonism: EC50; Antagonism: IC50)", "setting": "[2]", "value": "Inactive"},
      {"measurement": "IC50", "setting": "NK1", "value": "> 1", "unit": "µM"},
      {"measurement": "Activity (Agonism: EC50; Antagonism: IC50)", "setting": "Calcitonin (CGRP)", "value": "Inactive"},
      {"measurement": "metabolism by human liver microsomes in the presence of NADPH", "setting": "[3]; 0 to 60 minutes", "value": "extensively metabolized"},
      {"measurement": "intrinsic clearance, slower than that of DHE", "setting": "[3]; with NADPH", "value": "about 85%"},
      {"measurement": "antagonism of the 5-HT2B receptor", "setting": "human 5-HT2B receptor [4]; FIG. 2", "value": "potent antagonism"},
      {"measurement": "IC50", "setting": "human 5-HT2B receptor [4]; reference agonist at its EC80, read-out: IC50, 5-HT2B antagonism", "value": 0.205, "unit": "µM"},
      {"measurement": "Activity (Agonism: EC50; Antagonism: IC50)", "setting": "Opioid (OP1/OP2/OP3)", "value": "Inactive"},
      {"measurement": "IC50", "setting": "α1A receptor", "value": 0.207, "unit": "µM"},
      {"measurement": "Activity (Agonism: EC50; Antagonism: IC50)", "setting": "Somatostatin (SST1~SST5)", "value": "Inactive"},
      {"measurement": "IC50", "setting": "human α2A receptor", "value": 0.404, "unit": "µM"},
      {"measurement": "EC50", "setting": "D2 receptor", "value": 0.218, "unit": "µM"}
    ]}
  ]
}
